Reference: US20070275147A1, “SYNTHETIC SWEETENER COMPOSITIONS WITH IMPROVED TEMPORAL PROFILE AND/OR FLAVOR PROFILE, METHODS FOR THEIR FORMULATION, AND USES” (THE COCA-COLA COMPANY, priority 2005, published 2007)

What was measured:
[1] = tested on: panel of experts in the sensory evaluation of foods and beverages; experiment: Sensory evaluation of sweetness onset and sweetness linger by expert panel; format: in vivo, human; parameters: key to Sweetness Linger: 0: no sweetness linger; 1: very slight sweetness linger; 2: slight sweetness linger; 3: moderate sweetness linger; 4: moderately high sweetness linger; 5: high sweetness linger; key to Sweetness Onset: 1: quick onset; 2: moderate onset; 3: slow onset; conditions: for Sweetness Linger: rating scale 0-5, sweetness 2-3 min after water rinse, for ranges the lowest rating of all levels is reported; for Sweetness Onset: rating scale 1-3, ca. 10 mL sample tasted and expectorated, sucrose and neotame controls for calibration
Protocol: An exemplary method of sensory evaluation is provided in the following protocol, similar to that described hereinabove. In this test protocol, none of the samples were swallowed. All samples were expectorated and the mouth was rinsed with water after the tasting. In step 1, the 10% sucrose control sample was tasted by distributing ca. 10 mL of sample quickly throughout the oral cavity, wherein the maximal “Sweetness Intensity” was measured. This intensity is defined as a 10 on a 0-15 scale where 0 is defined as no perceptible sweetness and 15, the sweetness of 15% sucrose. The “Overall Quality” of the taste was also measured in the sucrose control and was defined as a 6 on a 1-9 scale. Immediately upon sensing maximal sweetness, the sample was expectorated, the mouth was rinsed with water and the rate of sweetness decay (“Sweetness Linger”) and “Sweetness Onset” were measured, where attention was focused on the sweetness 2-3 min after the water rinse. The sweetness linger was rated by a panel of experts in the sensory evaluation of foods and beverages using the following scale: 0=no sweetness linger, 1=very slight sweetness linger, 2=slight sweetness linger, 3=moderate sweetness linger, 4=moderately high sweetness linger, 5=high sweetness linger. The sweetness onset was rated by a panel of experts using the following scale: 1=quick onset, 2=moderate onset, 3 slow onset. After sample tasting was complete, a salty oyster cracker was chewed followed by a water rinse, and at least 5 minutes followed before tasting the next sample.
The “Sweetness Linger” rating for sucrose observed by this protocol was defined as 0 and the “Sweetness Onset” was defined as 1. The Sweetness Onset and Sweetness Linger of a neotame control sample were defined as 3 and 5, respectively.
Following calibration with the sucrose and neotame control samples, the experimental samples were tasted by the same protocol, always allowing sufficient time between samples to ensure re-equilibration of the sensory system. Re-tasting of control samples during the course of the experiment was allowed and encouraged.
The comparison taste test was performed between two controls and addition of sweet taste improving additive on the onset and/or sweetness linger.
In Examples A1-A7, where there are ranges provided, the beverage samples were made with 5-7 levels from the top to the bottom of the range, using a 1:1 dilution of the corresponding sweet taste improving compositions. The sweetness linger rating reported was the most sugar-like in sweetness linger (the lowest numerical value) attained of all the samples (i.e., the shortest sweetness linger).

Osmolarity of solution = format: physicochemical; conditions: sucrose at 10%
Description: Average concentrations of inorganic ions present in saliva, which are responsible for nearly all of the osmolarity of saliva, are as illustrated in Table 1 below. From the data shown, it is clear that saliva typically has an osmolarity of 70 mOsM. Sucrose at 10%, however, is 292 mOsM, more than 4-fold higher, and therefore will cause significant shrinkage of taste bud cell volume and signaling to the central nervous system (CNS). Osmolarity refers to the measure of osmoles of solute per liter of solution, wherein osmole is equal to the number of moles of osmotically active particles in an ideal solution (e.g., a mole of glucose is one osmole), whereas a mole of sodium chloride is two osmoles (one mole of sodium and one mole of chloride). Thus, in order to improve in the quality of taste of synthetic sweeteners, the osmotically active compounds or the compounds which impart osmolarity must not introduce significant off taste to the formulation.

Row | Structure (SMILES) | Sweetness Linger [1] | Sweetness Onset [1] | osmolarity (Osmolarity of solution) [mOsM] | Sweetness Linger ([1]; listed as sugar)
1 | COC(=O)[C@H](Cc1ccccc1)NC(=O)[C@H](CC(=O)O)NCCC(C)(C)C [neotame] | 5 | 3 |  | 
2 | OC[C@H]1O[C@@](CO)(O[C@H]2O[C@H](CO)[C@@H](O)[C@H](O)[C@H]2O)[C@@H](O)[C@@H]1O [sucrose] | 0 | 1 | 292 | 1
